Measurements as given in patent US20070128217A1 (priority 2003, published 2007).

Key:
[1] = test system: antibodies in sera from SARS patients (sera 1a, 1b, 2, 6, 37, 62, London, SARS-yellow, SARS-green); type: binding, human; parameters: Binding of serum 6 to linear peptides of protein X1 of SARS-CoV Urbani / Binding of serum 37 to linear peptides of protein X1 of SARS-CoV Urbani / Binding of serum 6 to looped/cyclic peptide (PEPSCAN-ELISA) / Binding of serum 37 to looped/cyclic peptide (PEPSCAN-ELISA) / Binding of serum 37 to looped/cyclic peptides of protein X1 of SARS-CoV Urbani / Binding of serum 6 to linear peptides of protein X2 / Binding of serum 37 to linear peptides of protein X2 / Binding of serum 37 to looped/cyclic peptides of protein X2 of SARS-CoV Urbani / Binding of serum 6 to linear peptides of protein M of SARS-CoV Urbani / Binding of serum 37 to linear peptides of protein M of SARS-CoV Urbani / Binding of serum 6 to looped/cyclic peptides of protein M of SARS-CoV Urbani / Binding of serum 37 to looped/cyclic peptides of protein M of SARS-CoV Urbani / Binding of serum 6 to linear peptides of protein X3 of SARS-CoV Urbani / Binding of serum 37 to linear peptides of protein X3 of SARS-CoV Urbani / Binding of serum 37 to looped/cyclic peptides of protein X3 of SARS-CoV Urbani / Binding of serum 6 to linear peptides of protein X4 of SARS-CoV Urbani / Binding of serum 37 to linear peptides of protein X4 of SARS-CoV Urbani / Binding of serum 37 to looped/cyclic peptides of protein X4 of SARS-CoV Urbani / Binding of serum 6 to linear peptides of protein X5 of SARS-CoV Urbani / Binding of serum 37 to linear peptides of protein X5 of SARS-CoV Urbani / Binding of serum 37 to looped/cyclic peptides of protein X5 of SARS-CoV Urbani / Binding of serum 6 to linear peptides of protein N of SARS-CoV Urbani / Binding of serum 37 to linear peptides of protein N of SARS-CoV Urbani / Binding of serum 6 to linear peptide (PEPSCAN-ELISA) / Binding of serum 1a to looped/cyclic peptides of protein N of SARS-CoV Urbani / Binding of serum 1b to looped/cyclic peptides of protein N of SARS-CoV Urbani / Binding of serum 2 to looped/cyclic peptides of protein N of SARS-CoV Urbani / Binding of serum 6 to looped/cyclic peptides of protein N of SARS-CoV Urbani / Binding of serum 37 to looped/cyclic peptides of protein N of SARS-CoV Urbani / Binding of serum 62 to looped/cyclic peptides of protein N of SARS-CoV Urbani / Binding of serum London to looped/cyclic peptides of protein N of SARS-CoV Urbani / Binding of serum SARS-green to looped/cyclic peptides of protein N of SARS-CoV Urbani: unit not given here
[2] = test system: control sera (pooled serum of ten healthy LUMC hospital workers; commercial negative donor pooled serum from the Dutch bloodbank); type: binding, human; parameters: Binding of Control serum LUMC to linear peptides / Binding of Control serum Blood-bank to linear peptides / Binding of Control serum LUMC to looped peptides / Binding of Control Serum Blood-Bank to Looped peptides / Binding of Control serum LUMC to linear peptides of the protein M of SARS-CoV Urbani / Binding of Control serum Blood-bank to linear peptides of the protein M of SARS-CoV Urbani / Binding of Control serum LUMC to looped peptides of the protein M of SARS-CoV Urbani / Binding of Control Serum Blood-Bank to Looped peptides of the protein M of SARS-CoV Urbani: unit not given here
[3] = test system: rabbit serum obtained by immunizing a rabbit with the SARS-CoV strain Frankfurt 1; type: binding; parameters: Binding of a rabbit serum to linear peptides / Binding of a rabbit serum to looped peptides / Rabbit serum linear peptides / Rabbit serum looped peptides / Binding of a rabbit serum to linear peptides of protein N of SARS-CoV Urbani (Rabbit serum linear peptides) / Binding of a rabbit serum to looped/cyclic peptides of protein N of SARS-CoV Urbani (Rabbit serum looped peptides): unit not given here
[4] = test system: recombinant human anti-SARS-CoV antibody 03-018; type: binding; parameters: Binding of antibody 03-018 to linear peptides of the N protein of SARS-CoV Urbani / Binding of antibody 03-018 to looped/cyclic peptides of the N protein of SARS-CoV Urbani: unit not given here

Row | Sequence | Binding of serum 1a to looped/cyclic peptides of protein N of SARS-CoV Urbani [1] | Binding of serum 1b to looped/cyclic peptides of protein N of SARS-CoV Urbani [1] | Binding of serum 2 to looped/cyclic peptides of protein N of SARS-CoV Urbani [1] | Binding of serum 6 to looped/cyclic peptides of protein N of SARS-CoV Urbani [1] | Binding of serum 37 to looped/cyclic peptides of protein N of SARS-CoV Urbani [1] | Binding of serum 62 to looped/cyclic peptides of protein N of SARS-CoV Urbani [1] | Binding of serum London to looped/cyclic peptides of protein N of SARS-CoV Urbani [1] | Binding of serum SARS-green to looped/cyclic peptides of protein N of SARS-CoV Urbani [1] | Binding of serum SARS-yellow to looped/cyclic peptides of protein N of SARS-CoV Urbani [1] | Binding of Control Serum Blood-Bank to Looped peptides [2] | Binding of Control serum Blood-bank to linear peptides [2] | Binding of Control serum LUMC to linear peptides [2] | Binding of Control serum LUMC to looped peptides [2] | Binding of a rabbit serum to linear peptides of protein N of SARS-CoV Urbani (Rabbit serum linear peptides) [3] | Binding of a rabbit serum to looped/cyclic peptides of protein N of SARS-CoV Urbani (Rabbit serum looped peptides) [3] | Binding of antibody 03-018 to linear peptides of the N protein of SARS-CoV Urbani [4] | Binding of antibody 03-018 to looped/cyclic peptides of the N protein of SARS-CoV Urbani [4] | further results
1 | AAEASKKPRQKRTAT | 0.2 | 0.1 | 0.2 | 0.1 | 0.4 | 0.3 | 0.3 | 0.1 | 0.2 | 0.5 | 0.8 | 0.9 | 0.5 | 0.3 | 0.5 | 0.1 | 0.2 | Recognition of the peptide by sera of SARS-CoV infected individuals, and form (linear, looped/cyclic) in which it is recognized [1]: recognized in linear form
2 | ADMDDFSRQLQNSMS | 0.3 | 0.2 | 0.2 | 0.0 | 0.4 | 0.3 | 0.2 | 0.1 | 0.2 |  |  |  |  | 0.2 | 0.4 | 0.1 | 0.1 | Binding of serum 1a to linear peptides of protein N of SARS-CoV Urbani [1]: 0.3; Binding of serum 1b to linear peptides of protein N of SARS-CoV Urbani [1]: 0.2; Binding of serum 2 to linear peptides of protein N of SARS-CoV Urbani [1]: 0.2; Binding of serum 6 to linear peptides of protein N of SARS-CoV Urbani [1]: 1.5; Binding of serum 37 to linear peptides of protein N of SARS-CoV Urbani [1]: 0.7; Binding of serum 62 to linear peptides of protein N of SARS-CoV Urbani [1]: 0.6; Binding of serum London to linear peptides of protein N of SARS-CoV Urbani [1]: 0.8; Binding of serum SARS-green to linear peptides of protein N of SARS-CoV Urbani [1]: 0.3; Binding of serum SARS-yellow to linear peptides of protein N of SARS-CoV Urbani [1]: 0.7; Control Serum Blood-Bank Looped peptides [2]: 0.4; Control serum Blood-bank linear peptides [2]: 0.8; Control serum LUMC linear peptides [2]: 0.7; Control serum LUMC looped peptides [2]: 0.2
3 | AFGRRGPEQTQGNFG | 0.3 | 0.1 | 0.3 | 0.1 | 0.3 | 0.3 | 0.3 | 0.1 | 0.1 | 0.4 | 0.6 | 0.5 | 0.3 | 0.1 | 0.0 | 0.1 | 0.2 | Binding of serum 1a to linear peptide (PEPSCAN-ELISA) [1]: 0.2; Binding of serum 1b to linear peptide (PEPSCAN-ELISA) [1]: 0.1; Binding of serum 2 to linear peptide (PEPSCAN-ELISA) [1]: 0.2; Binding of serum 6 to linear peptide (PEPSCAN-ELISA) [1]: 0.3; Binding of serum 37 to linear peptide (PEPSCAN-ELISA) [1]: 0.5; Binding of serum 62 to linear peptide (PEPSCAN-ELISA) [1]: 0.7; Binding of serum London to linear peptide (PEPSCAN-ELISA) [1]: 0.8; Binding of serum SARS-green to linear peptide (PEPSCAN-ELISA) [1]: 0.4; Binding of serum SARS-yellow to linear peptide (PEPSCAN-ELISA) [1]: 0.6
4 | PARMASGGGETALAL |  |  |  |  |  |  |  |  |  | 0.7 | 1.0 | 0.8 | 0.9 | 0.2 | 0.7 | 0.1 | 0.3 | 
5 | PQGTTLPKGFYAEGS |  |  |  |  |  |  |  |  |  | 0.6 | 0.7 | 0.6 | 0.6 | 0.1 | 0.5 | 0.1 | 0.2 | 
6 | RMASGGGETALALLL |  |  |  |  |  |  |  |  |  | 0.8 | 0.6 | 0.5 | 0.8 | 0.2 | 0.4 | 0.1 | 0.3 | 
7 | RQKRTATKQYNVTQA |  |  |  |  |  |  |  |  |  | 0.9 | 0.9 | 0.8 | 0.8 |  |  | 0.1 | 0.2 | Recognition of the peptide by the rabbit serum [3]: recognized
8 | SPARMASGGGETALA |  |  |  |  |  |  |  |  |  | 0.1 | 0.9 | 0.8 | 0.2 | 0.2 | 0.0 | 0.1 | 0.1 | 
9 | TATKQYNVTQAFGRR |  |  |  |  |  |  |  |  |  | 0.9 | 0.8 | 0.8 | 1.0 |  |  | 0.1 | 0.3 | Recognition of the peptide by the rabbit serum [3]: recognized
10 | TTLPKGFYAEGSRGG |  |  |  |  |  |  |  |  |  | 0.6 | 0.6 | 0.7 | 0.5 | 0.2 | 0.4 | 0.1 | 0.2 | 
